“Also recorded” adds a separate entry of the source.
Experiments:
SALL4 [1] = target: T1, SALL4 (Homo sapiens, UniProt Q96SW2+Q9UJQ4); experiment: SALL4 protein level in human iPS cells, immunoblot; format: cell-based; conditions: 16 hours
T1 construct: host or cells: human iPS cells (CRBN wild-type and CRBN knock-out)
Method: Immunoblot analysis of whole cell lysates of CRBN wild-type (WT) and CRBN knock-out (−/−) human iPS cells was performed. Cells were treated with DMSO vehicle control (−) or thalidomide (Thal) at indicated concentrations for 16 hours (n=4, biological replicates).
Immunoblot analysis of whole cell lysates of human iPS cells treated with DMSO (−) or Thal (+) in the presence or absence of 1 μM MLN4924 or 10 μM MG132 for 6 hours were performed (n=2, biological replicates).
Human iPS cell lines ACS-1019 and ACS-1011 (derived from healthy donors) were obtained from ATCC. The hiPSCs were maintained in mTESR-1 medium (Stem Cell Technologies) in cell culture plates coated with a thin layer of Matrigel (BD Biosciences) incubated at 37° C. in a humidified 5% CO2 incubator according to the manufacturer's instruction. Cells were split through mechanic passaging with a glass pipet and enzymatically digestion with Dispase or Accutase every 2 to 3 days.
Human iPSCs, ACS-1019 was transduced with lentiviral vectors expressing CRISPR-Cas9 and small guide RNA targeting cereblon for 4 days. The resulting colonies were amplified and screened for cereblon knockout by immunoblot analysis with anti-CRBN65 antibody (Celgene).

SALL4 mRNA = experiment: qRT-PCR of SALL4 mRNA in human iPS cells; format: cell-based; conditions: 20 μM thalidomide, 16 hours, normalized with GAPDH
Method: Quantitative RT-PCR analysis was performed to human iPS cells treated with DMSO or 20 μM thalidomide (THA) for 16 hours. The relative mRNA level of SALL4 and POU5F1(OCT4) was normalized with GAPDH (n=2, biological replicates).
Total RNA was extracted from human iPS cells using RNeasy Mini Kit (Qiagen) according to manufacturer's instruction, and reverse-transcribed into first-strand cDNA with random primer using SuperScript™ IV First-Strand Synthesis System (ThermoFisher). Real-time PCR was performed in triplicate using ViiA 7 Real-Time PCR System with TaqMan Gene Expression Assay probes (ThermoFisher) for SALL4 (#4351372), POU5F1(#4331182) and GAPDH (#4326317E).

SALL4 [2] = experiment: Cellular degradation of SALL4 variants in lenti-X-293 HEK cells expressing GST-CRBN; format: cell-based, human; conditions: 40 μM thalidomide, 16 hours
Method: Cells were treated with […] (+) or DMSO vehicle control (−) as indicated for 16 hours (n=2, biological replicates).
Lenti-x-293 cells stably expressing GST-CRBN and SALL4 variants were treated with DMSO or 40 μM thalidomide for 16 hours. Cells were then wished with ice-cold 1×PBS twice, lysed in buffer A [50 mM Tris. CL, 150 mM NaCl, 1% triton-x 100, complete protease inhibitor tablet (Roche), phosphatase inhibitor tablet (Roche)]. Whole cell extracts were harvested and subjected to immunoblot analysis.

SALL4 [3] = experiment: SALL4 immunohistochemistry in rabbit testis; format: in vivo; conditions: male rabbits
Method: Male New Zealand white rabbits were treated with vehicle (1% Carboxymethylcellulose in deionized water), or Thalidomide at either 30 or 150 mg/kg/day for 56 days to investigate testicular degeneration. Testis were collected 24 hours after the last dose, fixed in 10% NBF, processed, embedded in paraffin and sectioned at 4 microns for immunohistochemistry.
(§1) Rabbit embryos were stained for SALL4, and mouse testis were stained for SALL4 and ZFP91. Immunohistochemistry (IHC) was performed on the Bond-III automated slide stainer (Leica Microsystems, Buffalo Grove, Ill.) using the Bond Polymer Refine Detection system (Leica Microsystems, DS9800). Formalin fixed paraffin embedded (FFPE) tissues were sectioned at four micron thick and deparaffinized on the Bond-Max instrument. Antigen retrieval was performed with Epitope Retrieval 2 (ER2, pH 9.0) for 20 min at 100° C. The slides were blocked for endogenous peroxidase activity with Peroxide Block for 5 minutes at room temperature. Sections were then incubated with the mouse monoclonal anti-SALL4 EE-30 antibody (Santa Cruz, sc-101147) at a 1:100 dilution for 60 min at room temperature, or with the rabbit monoclonal anti-ZFP91 antibody (Celgene custom clone 122-8-6) at 0.25 ug/ml. […]

CK1α = CK1α (Homo sapiens, UniProt P48729); experiment: Degradation of CK1α (data not shown)
ZFP91 = ZFP91 (Mus musculus, UniProt Q62511); experiment: ZFP91 immunohistochemistry in huCRBN mouse testis; format: in vivo; design: from tissue; host or cells: testis of homozygous huCRBN knock-in mice; conditions: huCRBN mice, 1000 mg/kg for 7 days
Method: The SALL4 and ZFP91 protein levels were examined by immunohistochemistry in rabbit, wild-type mouse, and humanized cereblon mouse testes. […] HuCRBN Mice were treated for 7 days and testis were collected and examined by immunohistochemistry (n=3 animals per treatment group per species).
as §1, with “ug/ml. For mouse testis, primary antibodies were incubated for 15 min at room temperature, and Post-Primary and horseradish peroxidase (HRP) labeled Polymer were incubated at the instrument's default conditions.” for “ug/ml.”

T1 sequence (Q9UJQ4 whole entry): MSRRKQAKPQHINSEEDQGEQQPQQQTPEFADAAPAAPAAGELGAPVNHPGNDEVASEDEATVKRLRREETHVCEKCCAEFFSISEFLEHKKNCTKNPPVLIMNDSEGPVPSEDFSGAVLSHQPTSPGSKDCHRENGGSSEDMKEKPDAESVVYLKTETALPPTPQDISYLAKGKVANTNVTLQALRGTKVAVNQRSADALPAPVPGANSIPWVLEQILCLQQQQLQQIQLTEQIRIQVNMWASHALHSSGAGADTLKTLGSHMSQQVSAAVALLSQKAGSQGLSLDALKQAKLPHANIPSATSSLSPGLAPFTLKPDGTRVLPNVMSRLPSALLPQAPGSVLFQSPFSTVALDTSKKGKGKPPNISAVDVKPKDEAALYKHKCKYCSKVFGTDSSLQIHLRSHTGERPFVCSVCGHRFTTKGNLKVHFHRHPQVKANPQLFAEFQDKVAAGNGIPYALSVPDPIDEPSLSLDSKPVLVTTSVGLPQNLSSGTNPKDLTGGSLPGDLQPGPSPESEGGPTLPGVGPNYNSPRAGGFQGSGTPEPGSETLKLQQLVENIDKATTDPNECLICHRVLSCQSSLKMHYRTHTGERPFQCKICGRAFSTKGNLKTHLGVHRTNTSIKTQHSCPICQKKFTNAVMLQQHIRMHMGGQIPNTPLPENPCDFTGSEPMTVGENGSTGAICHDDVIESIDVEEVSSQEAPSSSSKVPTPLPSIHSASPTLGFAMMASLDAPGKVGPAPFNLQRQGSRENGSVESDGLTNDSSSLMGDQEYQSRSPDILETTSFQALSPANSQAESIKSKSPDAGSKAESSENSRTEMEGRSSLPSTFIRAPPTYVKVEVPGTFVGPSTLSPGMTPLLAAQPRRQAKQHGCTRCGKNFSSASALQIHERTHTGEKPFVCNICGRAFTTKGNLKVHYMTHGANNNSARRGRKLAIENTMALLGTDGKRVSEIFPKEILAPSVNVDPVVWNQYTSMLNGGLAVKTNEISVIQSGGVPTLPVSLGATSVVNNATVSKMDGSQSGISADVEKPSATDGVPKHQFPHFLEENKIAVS
T1 sequence (Q96SW2 whole entry): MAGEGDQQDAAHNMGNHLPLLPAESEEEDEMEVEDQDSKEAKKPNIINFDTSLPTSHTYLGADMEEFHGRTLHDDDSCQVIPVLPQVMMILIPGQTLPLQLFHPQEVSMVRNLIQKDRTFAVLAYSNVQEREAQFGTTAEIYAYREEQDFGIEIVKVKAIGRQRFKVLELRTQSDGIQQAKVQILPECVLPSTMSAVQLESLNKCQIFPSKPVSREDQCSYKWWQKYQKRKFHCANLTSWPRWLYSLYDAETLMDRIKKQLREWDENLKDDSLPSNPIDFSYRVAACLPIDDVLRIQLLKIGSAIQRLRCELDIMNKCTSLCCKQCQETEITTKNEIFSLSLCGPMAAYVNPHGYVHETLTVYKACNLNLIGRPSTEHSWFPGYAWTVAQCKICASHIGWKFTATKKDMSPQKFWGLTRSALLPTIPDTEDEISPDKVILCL
T1 sequence (Q16531 whole entry partner): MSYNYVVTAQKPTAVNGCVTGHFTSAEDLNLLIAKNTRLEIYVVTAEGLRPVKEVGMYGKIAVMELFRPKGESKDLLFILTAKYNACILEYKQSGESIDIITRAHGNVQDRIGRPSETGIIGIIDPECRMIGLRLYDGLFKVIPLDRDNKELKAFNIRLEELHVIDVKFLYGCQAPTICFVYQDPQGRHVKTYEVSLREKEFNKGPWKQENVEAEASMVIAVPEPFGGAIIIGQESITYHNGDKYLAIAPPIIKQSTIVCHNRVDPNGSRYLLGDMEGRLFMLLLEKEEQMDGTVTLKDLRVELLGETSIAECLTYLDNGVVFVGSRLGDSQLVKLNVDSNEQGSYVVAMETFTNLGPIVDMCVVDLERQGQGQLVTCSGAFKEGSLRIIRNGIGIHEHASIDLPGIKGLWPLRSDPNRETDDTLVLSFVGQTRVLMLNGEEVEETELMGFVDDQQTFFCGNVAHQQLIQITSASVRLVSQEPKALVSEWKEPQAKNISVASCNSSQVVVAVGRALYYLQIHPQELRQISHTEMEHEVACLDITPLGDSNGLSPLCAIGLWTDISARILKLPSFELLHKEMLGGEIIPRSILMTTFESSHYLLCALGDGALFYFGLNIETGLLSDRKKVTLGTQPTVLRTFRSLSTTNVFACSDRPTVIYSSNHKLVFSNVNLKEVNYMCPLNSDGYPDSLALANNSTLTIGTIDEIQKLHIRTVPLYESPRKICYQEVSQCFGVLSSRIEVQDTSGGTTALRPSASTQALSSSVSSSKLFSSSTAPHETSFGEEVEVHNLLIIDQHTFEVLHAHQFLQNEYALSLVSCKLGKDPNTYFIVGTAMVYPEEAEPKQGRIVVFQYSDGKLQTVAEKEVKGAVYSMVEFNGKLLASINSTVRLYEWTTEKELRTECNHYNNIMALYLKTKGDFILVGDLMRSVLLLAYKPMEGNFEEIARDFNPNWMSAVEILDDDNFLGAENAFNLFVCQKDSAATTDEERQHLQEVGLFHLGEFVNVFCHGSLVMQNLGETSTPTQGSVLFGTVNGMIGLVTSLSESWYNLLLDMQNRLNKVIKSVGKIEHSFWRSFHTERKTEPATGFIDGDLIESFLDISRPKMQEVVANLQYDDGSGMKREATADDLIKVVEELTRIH
Chain of ZFP91 (Q62511 whole entry): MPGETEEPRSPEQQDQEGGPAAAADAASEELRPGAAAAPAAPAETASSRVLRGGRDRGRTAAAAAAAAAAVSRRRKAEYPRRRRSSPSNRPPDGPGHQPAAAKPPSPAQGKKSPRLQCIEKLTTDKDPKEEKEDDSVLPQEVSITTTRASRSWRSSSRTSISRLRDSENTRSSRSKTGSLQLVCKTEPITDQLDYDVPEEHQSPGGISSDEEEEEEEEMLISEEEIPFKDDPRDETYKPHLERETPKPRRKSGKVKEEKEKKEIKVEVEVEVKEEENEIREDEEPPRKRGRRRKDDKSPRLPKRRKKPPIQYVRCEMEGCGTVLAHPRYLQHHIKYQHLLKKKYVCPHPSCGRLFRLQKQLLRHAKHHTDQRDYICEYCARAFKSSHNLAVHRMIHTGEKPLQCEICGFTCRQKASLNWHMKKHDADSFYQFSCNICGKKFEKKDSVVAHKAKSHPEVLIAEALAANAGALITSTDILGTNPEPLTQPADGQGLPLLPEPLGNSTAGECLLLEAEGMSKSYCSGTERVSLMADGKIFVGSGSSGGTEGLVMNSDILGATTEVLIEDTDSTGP
Chain of ZFP91 (Q96SW2 whole entry, further chain): as the sequence (Q96SW2 whole entry) above
Chain of ZFP91 (Q3U1J4 whole entry partner): as the sequence (Q16531 whole entry partner) above, with N418G, A495G, T745S, T1020A counted along it
Chain of CK1α (Q96SW2 whole entry partner): as the sequence (Q96SW2 whole entry) above
Chain of CK1α (Q16531 whole entry partner): as the sequence (Q16531 whole entry partner) above
Chain of CK1α (P48729 whole entry): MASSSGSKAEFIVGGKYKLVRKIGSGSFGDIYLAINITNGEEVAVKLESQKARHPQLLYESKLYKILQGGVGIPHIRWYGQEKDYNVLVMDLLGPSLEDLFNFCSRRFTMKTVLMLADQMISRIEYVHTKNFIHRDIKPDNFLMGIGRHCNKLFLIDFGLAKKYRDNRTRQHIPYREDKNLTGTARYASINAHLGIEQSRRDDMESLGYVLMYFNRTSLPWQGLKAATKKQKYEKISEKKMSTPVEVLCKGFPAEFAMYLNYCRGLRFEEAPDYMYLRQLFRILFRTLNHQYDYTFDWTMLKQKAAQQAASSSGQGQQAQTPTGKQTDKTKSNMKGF

SMILES: O=C1CCC(N2C(=O)c3ccccc3C2=O)C(=O)N1 (stereo not drawn) [thalidomide]
- SALL4 protein levels in CRBN wild-type human iPS cells (SALL4 [1]; indicated concentrations): reduced upon exposure to thalidomide in a dose dependent fashion; also recorded: dependent on thalidomide and cerelon
- SALL4 downregulation in CRBN knock-out human iPS cells (SALL4 [1]; CRISPR-mediated cereblon knockout): completely blocked the downregulation of SALL4 induced by thalidomide
- SALL4 mRNA levels (SALL4 mRNA): not reduced by thalidomide treatment (FIG. 7E), and are instead increased; also recorded: decrease in SALL4 protein levels is not due to transcriptional downregulation
- Degradation of G416A SALL4 (SALL4 [2]): blocked the thalidomide dependent degradation of SALL4
- Degradation of G600A SALL4 (SALL4 [2]): had no effect on SALL4 degradation
- SALL4 protein levels in testis (SALL4 [3]; 150 mg/kg/day): marked decrease; also recorded: caused degradation of both ZFP91 and SALL4
- SALL4 protein levels in testis, dose dependence (SALL4 [3]; 30 or 150 mg/kg/day for 56 days): dose-dependent decrease in SALL4 levels in the testis of male rabbits; also recorded: dose-dependent reduction of SALL4 protein levels in the testis; also recorded: dose dependent decrease in SALL4 levels in rabbit testis
- Triggering the degradation of CK1α (CK1α): does not trigger the degradation of CK1α
- ZFP91 protein levels in testis (ZFP91): robustly downregulated; also recorded: caused degradation of ZFP91 but not SALL4
